According to US9340556B2, “Antibacterial compounds” (GLAXO GROUP LIMITED, priority 2011, dated 2016):
Structures can show the parent of a compound that is named as a salt.

Assay: Antimicrobial activity assay: whole-cell broth microdilution MIC (CLSI M7-A7)
Assay type: cell-based
Conditions: for at least one strain of one organism listed, serial two-fold dilutions 0.064 to 64 μg/ml, in the presence of 20 uM human apo-Transferrin, tested in at least one exemplified salt or free base form, read-out: MIC (minimum inhibitory concentration)
Procedure: Antimicrobial Activity Assay
Whole-cell antimicrobial activity was determined by broth microdilution using the Clinical and Laboratory Standards Institute (CLSI) recommended procedure, Document M7-A7, “Methods for Dilution Susceptibility Tests for Bacteria that Grow Aerobically”. In some cases, broth microdilution MICs were determined using IsoSensitest broth (Oxoid) in place of CLSI recommended cation adjusted Mueller-Hinton broth. The compounds were tested in serial two-fold dilutions ranging from 0.064 to 64 μg/ml in the presence of 20 uM human apo-Transferrin (Sigma T-1147).
Compounds were evaluated against Gram-negative organisms selected from Escherichia coli, Pseudomonas aeruginosa, Proteus mirabilis, Enterobacter cloacae, Enterobacter aerogenes, Klebsiella pneumoniae, Stenotrophomonas maltophilia, Acinetobacter baumanii, Serratia marascens, Citrobacter freundii, and Klebsiella oxytoca.
The minimum inhibitory concentration (MIC) was determined as the lowest concentration of compound that inhibited visible growth. A mirror reader was used to assist in determining the MIC endpoint.
Each of the listed Examples 1 to 56 and 59 to 61 identified in the present application, were tested in at least one exemplified salt or free base form.

## Cn1cc(O)c(=O)c2cc(C[N+]3(CC4=C(C(=O)[O-])N5C(=O)[C@@H](NC(=O)/C(=N\O[C@@H](CC(=O)O)C(=O)O)c6csc(N)n6)[C@H]5SC4)CCCC3)ccc21 [Example 5, (6R,7R)-7-((Z)-2-(2-aminothiazol-4-yl)-2-(((S)-1,2-dicarboxyethoxy)imino)acetamido)-3-((1-((3-hydroxy-1-methyl-4-oxo-1,4-dihydroquinolin-6-yl)methyl)pyrrolidin-1-ium-1-yl)methyl)-8-oxo-5-thia-1-azabicyclo[4.2.0]oct-2-ene-2-carboxylate, 3 Sodium salt]
  MIC: ≤ 8 µg/mL
